Counter-ions that a name gives are not always drawn. Like-named read-outs stand apart in the source and are kept apart here.
Assays:
HsDYRK1A = target: T1, HsDYRK1A (Homo sapiens, UniProt Q13627); assay: ADP-Glo kinase assay; assay type: biochemical; conditions: for remaining activity at 1 µM / remaining activity at 10 µM: n=2, read-out: % of residual activity Hs_DYRK1A
T1 construct: host or cells: Sf9 insect cells (baculovirus)

MmCLK1 = target: T2, MmCLK1 (Mus musculus, UniProt P22518); assay: ADP-Glo kinase assay; assay type: biochemical; conditions: for remaining activity at 1 µM / remaining activity at 10 µM: n=2, read-out: % of residual activity Mm_CLK1
T2 construct: host or cells: bacteria

Hs_CDK5/p25 = target: T3, Hs_CDK5/p25 (Homo sapiens, UniProt Q00535); assay: ADP-Glo kinase assay, primary screen; assay type: biochemical; conditions: n=2, read-out: % of residual activity Hs_CDK5/p25
T3 construct: host or cells: bacteria

Hs_CDK9/CyclinT = target: T4, Hs_CDK9/CyclinT (Homo sapiens, UniProt P50750); assay: ADP-Glo kinase assay, primary screen; assay type: biochemical; conditions: n=2, read-out: % of residual activity Hs_CDK9/CyclinT
T4 construct: host or cells: Sf9 insect cells (baculovirus)

Hs_PIM1 = target: T5, Hs_PIM1 (Homo sapiens, UniProt P11309); assay: ADP-Glo kinase assay, primary screen; assay type: biochemical; conditions: n=2, read-out: % of residual activity Hs_PIM1
T5 construct: host or cells: Sf9 insect cells (baculovirus)

Rn_DYRK1A = target: T6, Rn_DYRK1A (Rattus norvegicus, UniProt Q63470); assay: ADP-Glo kinase assay, primary screen; assay type: biochemical; conditions: n=2, read-out: % of residual activity Rn_DYRK1A
T6 construct: host or cells: bacteria

Hs_HASPIN = target: T7, Hs_HASPIN (Homo sapiens, UniProt Q8TF76); assay: ADP-Glo kinase assay, primary screen; assay type: biochemical; conditions: n=2, read-out: % of residual activity Hs_HASPIN
T7 construct: host or cells: bacteria
T7 sequence (Q8TF76 1-798): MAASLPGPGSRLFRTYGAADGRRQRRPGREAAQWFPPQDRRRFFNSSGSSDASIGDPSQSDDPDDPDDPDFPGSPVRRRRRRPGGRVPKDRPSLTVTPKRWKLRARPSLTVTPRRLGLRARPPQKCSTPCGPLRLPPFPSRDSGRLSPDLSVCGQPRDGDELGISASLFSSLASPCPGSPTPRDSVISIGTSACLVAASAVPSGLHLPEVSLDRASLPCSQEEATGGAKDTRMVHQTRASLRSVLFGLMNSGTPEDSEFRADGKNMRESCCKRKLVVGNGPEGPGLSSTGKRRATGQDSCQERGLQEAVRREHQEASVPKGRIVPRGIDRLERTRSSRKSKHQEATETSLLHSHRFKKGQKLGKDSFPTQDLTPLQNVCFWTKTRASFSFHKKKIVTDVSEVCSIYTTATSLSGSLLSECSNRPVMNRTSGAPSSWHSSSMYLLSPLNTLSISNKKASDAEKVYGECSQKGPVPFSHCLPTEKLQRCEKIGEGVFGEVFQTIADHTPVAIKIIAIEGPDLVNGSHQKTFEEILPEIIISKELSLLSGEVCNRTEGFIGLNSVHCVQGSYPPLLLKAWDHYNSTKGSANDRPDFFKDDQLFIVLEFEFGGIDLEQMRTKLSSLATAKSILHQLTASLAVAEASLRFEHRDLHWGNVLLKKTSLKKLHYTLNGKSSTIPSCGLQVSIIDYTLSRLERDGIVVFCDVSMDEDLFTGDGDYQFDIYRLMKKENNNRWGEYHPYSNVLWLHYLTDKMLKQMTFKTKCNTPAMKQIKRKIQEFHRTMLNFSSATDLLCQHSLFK

Hs_GSK3β = target: T8, Hs_GSK3β (Homo sapiens, UniProt P49841); assay: ADP-Glo kinase assay, primary screen; assay type: biochemical; conditions: n=2, read-out: % of residual activity Hs_GSK3β
T8 construct: host or cells: Sf9 insect cells (baculovirus)

Hs_CK1ε = target: T9, Hs_CK1ε (Homo sapiens, UniProt P49674); assay: ADP-Glo kinase assay, primary screen; assay type: biochemical; conditions: n=2, read-out: % of residual activity Hs_CK1ε
T9 construct: host or cells: Sf9 insect cells (baculovirus)

[1] = cytotoxic assay, nuclei count (Hoechst, HCS); assay type: cell-based; conditions: human, HuH7 cells (hepatocellular carcinoma); 48 h treatment; read-out: Cytotoxic studies IC50 HuH7
[2] = cytotoxic assay, nuclei count (Hoechst, HCS); assay type: cell-based; conditions: human, Caco-2 cells (colorectal adenocarcinoma); 48 h treatment; read-out: Cytotoxic studies IC50 Caco2
[3] = cytotoxic assay, nuclei count (Hoechst, HCS); assay type: cell-based; conditions: human, MDA-MB-231 cells (breast carcinoma); 48 h treatment; read-out: Cytotoxic studies IC50 MDA-MB-231
[4] = cytotoxic assay, nuclei count (Hoechst, HCS); assay type: cell-based; conditions: human, 48 h treatment
Procedure: (§1) To complete our study, we performed a cytotoxicity screening of the 15 molecules, investigating 7 representative cancer cell lines. The compound’s effect on cell viability was evaluated on Huh-7 (hepatocellular carcinoma), CaCo2, HCT-116 (colorectal adenocarcinoma), MCF7, MDA-MB231, MDA-MB468 (breast carcinoma), PC3 (prostate carcinoma) and NCI-H727 (lung carcinoid). Human skin fibroblasts were used as reference for non-cancerous cells. Roscovitine, Doxorubicin and Taxol were used as positive controls. The cells were treated for 48 h with 25 µM compounds and fixed in cooled 90% ethanol/5% acetic acid for 20 min. The nuclei were stained with Hoechst 33342 and counted using HCS technology.
(§2) HuH7, CaCo-2, MDA-MB-231, HCT116, PC3, MCF7 and NCI-H727 cancer cell lines were obtained from the ECACC collection (Porton Down, UK). Cells were grown at 37 °C, 5% CO2 in ECACC recommended media: DMEM for HuH7, MDA-MB-231 and fibroblast, EMEM for MCF7and CaCo-2, McCoy’s for HCT116 and RPMI for PC3 and NCI-H727. All culture media were supplemented with 10% of FBS, 1% of penicillin-streptomycin and 2 mM glutamine.
(§3) Chemicals were solubilized in DMSO at a concentration of 10 mM (stock solution) and diluted in culture medium to the desired final concentrations.
[…] Cells were plated in 96 wells plates (4000 cells/well). Twenty-four hours after seeding, cells were exposed to chemicals. After 48 h of treatment, cells were washed in PBS and fixed in cooled 90% ethanol/5% acetic acid for 20 min and the nuclei were stained with Hoechst 33342 (B2261 Sigma). Image acquisition and analysis were performed using a CellomicsArrayScan VTI/HCS Reader (ThermoScientific, Waltham, MA, USA). The survival percentages were calculated as the percentage of cell number after compound treatment over cell number after DMSO treatment.

[5] = cytotoxic assay, nuclei count (Hoechst, HCS); assay type: cell-based; conditions: human, MCF7 cells (breast carcinoma); 48 h treatment; read-out: Cytotoxic studies IC50 MCF7
Procedure: as §1, §2, §3
(§4) The cytotoxic assay of chemical was performed at 25 µM. Cells were plated in 96 wells plates (4000 cells/well). Twenty-four hours after seeding, cells were exposed to chemicals. After 48 h of treatment, cells were washed in PBS and fixed in cooled 90% ethanol/5% acetic acid for 20 min and the nuclei were stained with Hoechst 33342 (B2261 Sigma). Image acquisition and analysis were performed using a CellomicsArrayScan VTI/HCS Reader (ThermoScientific, Waltham, MA, USA). The survival percentages were calculated as the percentage of cell number after compound treatment over cell number after DMSO treatment.

[6] = cytotoxic assay, nuclei count (Hoechst, HCS); assay type: cell-based, human; conditions: human, human skin fibroblasts (non-cancerous reference cells); 48 h treatment; some cells add low/moderate/high amplitude; read-out: Cytotoxic studies IC50 Fibroblasts
Procedure: as §1, §2, §3, §4

[7] = HCT116 cells (colorectal adenocarcinoma), read-out: Cytotoxic studies IC50 HCT116
[8] = MDA-MB-468 cells (breast carcinoma), read-out: Cytotoxic studies IC50 MDA-MB-468

T2 sequence (P22518 whole entry): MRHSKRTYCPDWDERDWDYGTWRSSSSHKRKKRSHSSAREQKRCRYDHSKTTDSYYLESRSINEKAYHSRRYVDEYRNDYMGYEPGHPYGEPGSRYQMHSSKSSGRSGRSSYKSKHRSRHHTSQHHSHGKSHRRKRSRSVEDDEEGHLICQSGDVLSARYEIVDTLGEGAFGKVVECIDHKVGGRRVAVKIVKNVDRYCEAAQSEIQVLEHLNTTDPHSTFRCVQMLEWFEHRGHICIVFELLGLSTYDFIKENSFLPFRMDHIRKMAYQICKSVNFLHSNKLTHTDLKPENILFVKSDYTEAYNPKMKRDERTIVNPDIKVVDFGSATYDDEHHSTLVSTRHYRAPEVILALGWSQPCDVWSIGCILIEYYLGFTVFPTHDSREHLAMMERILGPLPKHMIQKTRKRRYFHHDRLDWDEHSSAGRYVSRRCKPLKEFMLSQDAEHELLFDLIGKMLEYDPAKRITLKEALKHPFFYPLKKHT
T9 sequence (P49674 whole entry): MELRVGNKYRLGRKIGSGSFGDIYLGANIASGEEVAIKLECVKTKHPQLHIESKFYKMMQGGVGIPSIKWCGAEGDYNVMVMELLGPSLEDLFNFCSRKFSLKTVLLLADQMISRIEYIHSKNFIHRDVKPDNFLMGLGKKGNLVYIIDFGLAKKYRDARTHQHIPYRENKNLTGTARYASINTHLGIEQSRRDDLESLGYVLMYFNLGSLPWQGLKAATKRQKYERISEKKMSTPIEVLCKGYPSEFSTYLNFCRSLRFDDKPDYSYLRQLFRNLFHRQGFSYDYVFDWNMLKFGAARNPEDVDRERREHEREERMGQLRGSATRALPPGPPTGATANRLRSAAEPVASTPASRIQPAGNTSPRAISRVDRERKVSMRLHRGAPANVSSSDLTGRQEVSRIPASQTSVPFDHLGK
T3 sequence (Q00535 whole entry): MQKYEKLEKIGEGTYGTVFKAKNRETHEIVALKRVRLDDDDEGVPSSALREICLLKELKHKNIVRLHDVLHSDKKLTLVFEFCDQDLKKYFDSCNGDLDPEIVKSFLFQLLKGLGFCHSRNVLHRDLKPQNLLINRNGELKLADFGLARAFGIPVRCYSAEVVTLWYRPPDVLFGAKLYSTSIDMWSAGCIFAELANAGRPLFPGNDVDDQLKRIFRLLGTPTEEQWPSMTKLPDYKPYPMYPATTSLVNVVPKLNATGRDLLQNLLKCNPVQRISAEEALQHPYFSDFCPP
T3 sequence (Q15078 99-307 partner limits assumed): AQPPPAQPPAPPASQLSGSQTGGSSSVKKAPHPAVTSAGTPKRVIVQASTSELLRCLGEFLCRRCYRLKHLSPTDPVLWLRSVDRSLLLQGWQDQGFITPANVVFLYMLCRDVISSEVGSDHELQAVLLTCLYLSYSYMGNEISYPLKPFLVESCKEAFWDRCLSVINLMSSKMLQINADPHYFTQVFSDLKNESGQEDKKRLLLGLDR
T5 sequence (P11309 whole entry): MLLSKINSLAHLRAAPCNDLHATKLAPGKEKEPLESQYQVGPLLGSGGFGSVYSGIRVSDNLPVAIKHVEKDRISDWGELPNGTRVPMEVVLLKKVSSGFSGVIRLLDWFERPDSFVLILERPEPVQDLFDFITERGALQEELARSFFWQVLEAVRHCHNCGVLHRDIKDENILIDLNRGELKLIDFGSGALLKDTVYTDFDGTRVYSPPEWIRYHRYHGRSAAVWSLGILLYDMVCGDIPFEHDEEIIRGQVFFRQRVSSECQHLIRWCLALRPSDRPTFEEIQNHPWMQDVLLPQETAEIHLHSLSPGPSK
T4 sequence (P50750 whole entry): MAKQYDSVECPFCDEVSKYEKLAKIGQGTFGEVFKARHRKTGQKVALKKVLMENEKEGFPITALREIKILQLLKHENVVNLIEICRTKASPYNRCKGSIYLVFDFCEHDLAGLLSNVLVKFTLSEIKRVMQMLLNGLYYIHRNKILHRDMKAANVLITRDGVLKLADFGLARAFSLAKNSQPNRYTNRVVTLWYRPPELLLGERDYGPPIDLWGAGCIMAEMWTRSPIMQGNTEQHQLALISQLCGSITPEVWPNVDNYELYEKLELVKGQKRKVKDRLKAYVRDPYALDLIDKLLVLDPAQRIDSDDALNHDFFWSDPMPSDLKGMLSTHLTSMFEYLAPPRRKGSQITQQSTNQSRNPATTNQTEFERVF
T4 sequence (O60563 whole entry partner): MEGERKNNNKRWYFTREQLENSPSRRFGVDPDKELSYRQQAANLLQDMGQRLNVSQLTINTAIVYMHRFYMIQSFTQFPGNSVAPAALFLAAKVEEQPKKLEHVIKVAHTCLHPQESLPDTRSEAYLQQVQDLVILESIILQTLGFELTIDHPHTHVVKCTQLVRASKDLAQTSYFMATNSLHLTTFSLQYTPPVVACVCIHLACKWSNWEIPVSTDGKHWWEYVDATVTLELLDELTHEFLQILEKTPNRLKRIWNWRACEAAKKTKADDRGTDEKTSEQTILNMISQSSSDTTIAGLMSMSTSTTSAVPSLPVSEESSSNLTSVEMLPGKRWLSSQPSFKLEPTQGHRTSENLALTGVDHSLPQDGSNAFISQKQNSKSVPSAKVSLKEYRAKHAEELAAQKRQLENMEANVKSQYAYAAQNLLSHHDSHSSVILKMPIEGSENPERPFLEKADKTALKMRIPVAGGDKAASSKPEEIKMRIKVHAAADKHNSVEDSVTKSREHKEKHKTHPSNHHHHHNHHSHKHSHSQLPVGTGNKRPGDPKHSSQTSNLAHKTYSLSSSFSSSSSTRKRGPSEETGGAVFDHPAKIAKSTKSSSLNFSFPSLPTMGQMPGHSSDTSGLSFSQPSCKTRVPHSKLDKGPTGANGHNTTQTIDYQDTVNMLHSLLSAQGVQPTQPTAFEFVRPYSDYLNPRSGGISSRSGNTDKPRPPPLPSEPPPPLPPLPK
T8 sequence (P49841 whole entry): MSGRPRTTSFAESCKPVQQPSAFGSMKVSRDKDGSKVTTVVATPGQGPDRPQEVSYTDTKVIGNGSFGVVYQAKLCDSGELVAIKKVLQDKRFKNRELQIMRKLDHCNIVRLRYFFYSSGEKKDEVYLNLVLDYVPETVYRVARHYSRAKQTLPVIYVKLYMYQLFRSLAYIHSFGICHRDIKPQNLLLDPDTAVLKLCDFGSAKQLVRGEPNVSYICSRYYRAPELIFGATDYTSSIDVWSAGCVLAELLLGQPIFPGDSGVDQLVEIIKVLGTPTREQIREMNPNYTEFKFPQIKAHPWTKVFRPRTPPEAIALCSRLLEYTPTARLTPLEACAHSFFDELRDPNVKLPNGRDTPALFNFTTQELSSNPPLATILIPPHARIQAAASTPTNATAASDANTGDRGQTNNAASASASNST

Which remaining activity at 1 µM (HsDYRK1A) does the source give for CC(C)(C)OC(=O)N[C@H]1CC[C@H](n2cc(COc3cccc4cnc(Nc5cc(Cl)cc(Cl)c5)nc34)nn2)CC1 [18b, tert-Butyl ((trans)-4-(4-(((2-((3,5-dichlorophenyl)amino)quinazolin-8-yl)oxy)methyl)-1H-1,2,3-triazol-1-yl)cyclohexyl)carbamate] here?
Its remaining activity at 1 µM is no less than 100%.

And the remaining activity at 10 µM (HsDYRK1A)?
The remaining activity at 10 µM was 85%.

And the remaining activity at 1 µM (MmCLK1)?
The remaining activity at 1 µM was 86%.

And the remaining activity at 10 µM (MmCLK1)?
The remaining activity at 10 µM was 72%.

And the remaining activity at 1 µM (Hs_CDK5/p25)?
Its remaining activity at 1 µM is 85%.

What about the remaining activity at 10 µM (Hs_CDK5/p25) of the same compound?
The remaining activity at 10 µM was 81%.

And the remaining activity at 1 µM (Hs_CDK9/CyclinT)?
The remaining activity at 1 µM was 98%.

What about the remaining activity at 10 µM (Hs_CDK9/CyclinT) of the same compound?
Its remaining activity at 10 µM is 83%.

And the remaining activity at 1 µM (Hs_PIM1)?
The remaining activity at 1 µM was 94%.

What about the remaining activity at 10 µM (Hs_PIM1) of the same compound?
Its remaining activity at 10 µM is 68%.

And the remaining activity at 1 µM (Rn_DYRK1A)?
Its remaining activity at 1 µM is no less than 100%.

And the remaining activity at 10 µM (Rn_DYRK1A)?
Its remaining activity at 10 µM is no less than 100%.

What about the remaining activity at 1 µM (Hs_HASPIN) of the same compound?
Its remaining activity at 1 µM is 72%.

What about the remaining activity at 10 µM (Hs_HASPIN) of the same compound?
Its remaining activity at 10 µM is 53%.

And the remaining activity at 1 µM (Hs_GSK3β)?
Its remaining activity at 1 µM is 75%.

What about the remaining activity at 10 µM (Hs_GSK3β) of the same compound?
The remaining activity at 10 µM was 35%.

And the remaining activity at 1 µM (Hs_CK1ε)?
The remaining activity at 1 µM was no less than 100%.

What about the remaining activity at 10 µM (Hs_CK1ε) of the same compound?
The remaining activity at 10 µM was 92%.

What about the IC50 at 48 h [1] of the same compound?
Its IC50 at 48 h is 10 µM.

What about the IC50 at 48 h [2] of the same compound?
The IC50 at 48 h was greater than 25 µM.

What about the IC50 at 48 h [3] of the same compound?
Its IC50 at 48 h is greater than 25 µM.

What about the IC50 at 48 h [4, 7] of the same compound?
The IC50 at 48 h was greater than 25 µM.

What about the IC50 at 48 h [4, 8] of the same compound?
Its IC50 at 48 h is greater than 25 µM.

And the IC50 at 48 h [5]?
The IC50 at 48 h was greater than 25 µM.

And the IC50 at 48 h [6]?
The IC50 at 48 h was greater than 25 µM.

With N[C@H]1CC[C@@H](n2cc(COc3cccc4cnc(Nc5cccc(Cl)c5)nc34)nn2)CC1 [16a, 8-((1-((cis)-4-Aminocyclohexyl)-1H-1,2,3-triazol-4-yl)methoxy)-N-(3-chlorophenyl)quinazolin-2-amine hydrochloride] as the compound, how does the remaining activity at 1 µM (HsDYRK1A) read?
Its remaining activity at 1 µM is 84%.

What about the IC50 (HsDYRK1A; 10 µM ATP, duplicate) of the same compound?
The IC50 was 2.76 µM.

And the remaining activity at 10 µM (HsDYRK1A)?
Its remaining activity at 10 µM is 36%.

And the remaining activity at 1 µM (MmCLK1)?
Its remaining activity at 1 µM is 17%.

What about the remaining activity at 10 µM (MmCLK1) of the same compound?
The remaining activity at 10 µM was 8%.

What about the IC50 (MmCLK1; mouse CLK1 orthologue, read-out: IC50 MmCLK1) of the same compound?
Its IC50 is 0.22 µM.

What about the remaining activity at 1 µM (Hs_CDK5/p25) of the same compound?
The remaining activity at 1 µM was 75%.

And the remaining activity at 10 µM (Hs_CDK5/p25)?
Its remaining activity at 10 µM is 36%.

What about the remaining activity at 1 µM (Hs_CDK9/CyclinT) of the same compound?
The remaining activity at 1 µM was 68%.

What about the remaining activity at 10 µM (Hs_CDK9/CyclinT) of the same compound?
The remaining activity at 10 µM was 12%.

And the remaining activity at 1 µM (Hs_PIM1)?
Its remaining activity at 1 µM is 54%.

What about the remaining activity at 10 µM (Hs_PIM1) of the same compound?
The remaining activity at 10 µM was 14%.

What about the remaining activity at 1 µM (Rn_DYRK1A) of the same compound?
Its remaining activity at 1 µM is 82%.

What about the remaining activity at 10 µM (Rn_DYRK1A) of the same compound?
Its remaining activity at 10 µM is 33%.

And the remaining activity at 1 µM (Hs_HASPIN)?
Its remaining activity at 1 µM is 72%.

What about the remaining activity at 10 µM (Hs_HASPIN) of the same compound?
The remaining activity at 10 µM was 31%.

And the remaining activity at 1 µM (Hs_GSK3β)?
The remaining activity at 1 µM was 32%.

What about the remaining activity at 10 µM (Hs_GSK3β) of the same compound?
The remaining activity at 10 µM was 49%.

What about the remaining activity at 1 µM (Hs_CK1ε) of the same compound?
Its remaining activity at 1 µM is 87%.

What about the remaining activity at 10 µM (Hs_CK1ε) of the same compound?
The remaining activity at 10 µM was 21%.

And the IC50 at 48 h [1]?
Its IC50 at 48 h is 8 µM.

And the IC50 at 48 h [2]?
Its IC50 at 48 h is 9 µM.

What about the IC50 at 48 h [3] of the same compound?
Its IC50 at 48 h is 9 µM.

And the IC50 at 48 h [4, 7]?
Its IC50 at 48 h is 10 µM.

And the IC50 at 48 h [4, 8]?
The IC50 at 48 h was 9 µM.

What about the IC50 at 48 h [5] of the same compound?
The IC50 at 48 h was 8 µM.

And the IC50 at 48 h [6]?
The IC50 at 48 h was 9 µM.

Source: paper PMC9571063 (Molecules, 2022)
